Test system: normal human lung fibroblasts (NHLF), TGFβ-induced alpha-smooth muscle actin
Experiment: Inhibition of the myofibroblast transition of normal human lung fibroblasts (NHLF)
Type: cell-based
Details: Fibroblast; 1 ng/mL human TGFβ, 24 h, alpha-smooth muscle actin western blot; read-out: inhibition of NHLF myofibroblast transition pIC50 (-log IC50) (converted)
Description: Method for Determination of the Inhibition of the Myofibroblast Transition of Normal Human Lung Fibroblasts (NHLF)
200,000 NHLF-cells were seeded into each well of six-well cell culture plates in full-medium and starved for 24 h after initial 24 h incubation at 37° C., 5% CO2 and 95% humidity. Before inducing fibroblast-to-myofibroblast conversion by adding 1 ng/mL human TGFβ serial dilution of test compound was administered. After 24 h the cells were collected and processed to lysates as described subsequently.
Cells were washed, twice in PBS, trypsinated and centrifuged at 500×g for 10 min. Afterwards the cell pellet was resuspended in 150 microL freshly prepared lysis buffer (50 mM Hepes, pH 7.5, 150 mM NaCl, 1.5 mM MgCl2, 10% […], 1% Triton X-100, 0.5% Desoxycholat, 0.2% SDS, 1 mM EGTA (ethylene glycol tetraacetic acid), 100 mM NaF, 10 mM Na4P2O7, 1 mM Na-Vanadat, 1 mM PMSF and 50 U/mL Benzonase (Merck KGaA, Darmstadt, Germany), one Phosphatase Inhibitor Cocktail tablet (Complete Mini from Roche Diagnostics, Mannheim, Germany) per 10 ml buffer and stored at −80° C. for further use. Protein concentration was determined following instructions of the BCA Protein Assay (Pierce Biotechnology, Rockford, Ill., USA). Photometric measurements were performed with the microplate reader Sunrise from Tecan Group Ltd., (Männedorf, Switzerland). 6 μg of protein of the different samples were separated on a 10% SDS (Sodium Dodecyl Sulfate) discontinuous polyacrylamide gel electrophoresis. Thereafter, proteins were blotted from the gel onto a nitrocellulose transfer membrane for 2 h at 400 mA in a wet-blot-chamber. Thereafter the membrane was blocked in 5% milkpowder in PBS (Phosphate Buffered Saline) containing 0.1% Tween 20 at 4° C. overnight. Subsequently the membrane was hybridized for 4 h with the primary anti-Alpha-smooth muscle actin antibody (1:2,000 in 5% milkpowder in PBS), washed three times in PBS containing 0.1% Tween 20. This was followed by incubation with the secondary horseradish-coupled goat anti-mouse IgG detection-antibody (1:10,000 in 5% milkpowder in PBS) for 2 h. After final washing with PBS containing 0.1% Tween 20 (three times for 10 min each) the blot was developed by using a chemiluminescence detection system according to the manufacturer instructions and a luminescent image analyzer (Fuji LAS 1000 Pro).
The numbers of the compounds correspond to the examples numbers.

Row | SMILES | IC50 [nM]
1 | O=C(O)/C=C/c1cccc(NC(=O)c2cc(-c3ccccc3)cc3ccccc23)c1 [Example 1, (2E)-3-(3-{[(3-phenylnaphthalen-1-yl)carbonyl]amino}phenyl)prop-2-enoic acid] | 0.316 to 3.16
2 | O=C(O)/C=C/c1ccc(F)c(NC(=O)c2cc(-c3ccccc3)cc3ccccc23)c1 [Example 2, (2E)-3-(4-fluoro-3-{[(3-phenylnaphthalen-1-yl)carbonyl]amino}phenyl)prop-2-enoic acid] | 0.316 to 3.16
3 | O=C(O)/C=C/c1ccc(F)c(NC(=O)c2cc(-c3ccccc3F)cc3ccccc23)c1 [Example 9, (2E)-3-{3-[({3-[2-fluorophenyl]naphthalen-1-yl}carbonyl)amino]-4fluorophenyl}prop-2-enoic acid] | 0.316 to 3.16
4 | O=C(O)/C=C/c1ccc(F)c(NC(=O)c2cc(-c3cccc(F)c3)cc3ccccc23)c1 [Example 10, (2E)-3-{3-[({3-[3-fluorophenyl]naphthalen-1-yl}carbonyl)amino]-4fluorophenyl}prop-2-enoic acid] | 0.316 to 3.16

— US9309187B2, “EP2 receptor agonists” (TAKEDA GMBH, priority 2012, dated 2016)
